In PubChem BioAssay AID328 (DTP/NCI, 2004):
Where “and” joins values, the source holds several entries; their conditions need not be identical. Equal values may be shown once. Toxic doses and inconclusive results are not listed.

Test system: BDF1 mice, P388 leukemia ip, median survival T/C
Experiment: NCI In Vivo Anticancer Drug Screen. Data for tumor model P388 Leukemia (intraperitoneal) in B6D2F1 (BDF1) mice
Conditions: endpoint: median survival time, higher = longer survival
Procedure, shortened: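 Vehicle-dosed animals serve as the reference; survival of compound-dosed, tumour-implanted mice is divided by it.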

[1] = dose: 6.25 mg/kg/injection, schedule: Q01DX009 (ip), vehicle: Klucel (hydroxypropylcellulose) (HPC)
[2] = dose: 12.5 mg/kg/injection, schedule: Q01DX009 (ip), vehicle: Klucel (hydroxypropylcellulose) (HPC)
[3] = dose: 25.0 mg/kg/injection, schedule: Q01DX009 (ip), vehicle: Klucel (hydroxypropylcellulose) (HPC)
[4] = dose: 25.0 mg/kg/injection, schedule: Q01DX009 (ip), vehicle: saline
[5] = dose: 50.0 mg/kg/injection, schedule: Q01DX009 (ip), vehicle: saline with Tween-80
[6] = dose: 50.0 mg/kg/injection, schedule: Q01DX009 (ip), vehicle: saline
[7] = dose: 100.0 mg/kg/injection, schedule: Q01DX001 (ip), vehicle: saline
[8] = dose: 200.0 mg/kg/injection, schedule: Q01DX001 (ip), vehicle: saline
[9] = dose: 100.0 mg/kg/injection, schedule: Q01DX009 (ip), vehicle: saline with Tween-80
[10] = dose: 100.0 mg/kg/injection, schedule: Q04DX003 (ip), vehicle: saline with Tween-80
[11] = dose: 200.0 mg/kg/injection, schedule: Q01DX009 (ip), vehicle: saline with Tween-80
[12] = dose: 200.0 mg/kg/injection, schedule: Q04DX003 (ip), vehicle: saline with Tween-80
[13] = dose: 400.0 mg/kg/injection, schedule: Q04DX003 (ip), vehicle: saline with Tween-80
[14] = dose: 100.0 mg/kg/injection, schedule: Q01DX009 (ip), vehicle: saline

COc1cc2oc3c(c(=O)c2c(O)c1/C=C/C(C)C)CCC(C)(C)Oc1cc(O)ccc1-3
T/C (dose: 3.13 mg/kg/injection, schedule: Q01DX009 (ip), vehicle: Klucel (hydroxypropylcellulose) (HPC)): 96 % of control | T/C [1]: 94 % of control | T/C [2]: 94 % of control | T/C [3]: 103 % of control

CCOC(=O)C(=Cc1ccc(O)c(OC)c1)C(=O)OCC
T/C (dose: 100.0 mg/kg/injection, schedule: Q01DX001 (ip), vehicle: saline with Tween-80): 90 % of control | T/C (dose: 200.0 mg/kg/injection, schedule: Q01DX001 (ip), vehicle: saline with Tween-80): 95 % of control | T/C (dose: 400.0 mg/kg/injection, schedule: Q01DX001 (ip), vehicle: saline with Tween-80): 104 % of control

O=[N+]([O-])c1cc([N+](=O)[O-])c2ccc(S(=O)(=O)O)cc2c1O
T/C (dose: 6.25 mg/kg/injection, schedule: Q04DX002 (ip), vehicle: saline): 106 % of control | T/C (dose: 12.5 mg/kg/injection, schedule: Q04DX002 (ip), vehicle: saline): 101 % of control | T/C (dose: 25.0 mg/kg/injection, schedule: Q04DX002 (ip), vehicle: saline): 105 % of control

CN/N=C/c1cccnc1
T/C (dose: 12.5 mg/kg/injection, schedule: Q01DX009 (ip), vehicle: saline): 97 % of control | T/C [4]: 95 % of control | T/C [5]: 105 % of control | T/C [6]: 95 % of control

O=C(Cc1ccc([N+](=O)[O-])cc1)c1ccc(O)cc1O
T/C (dose: 50.0 mg/kg/injection, schedule: Q04DX003 (ip), vehicle: Klucel (hydroxypropylcellulose) (HPC)): 86 % of control | T/C (dose: 100.0 mg/kg/injection, schedule: Q04DX003 (ip), vehicle: Klucel (hydroxypropylcellulose) (HPC)): 95 % of control | T/C (dose: 200.0 mg/kg/injection, schedule: Q04DX003 (ip), vehicle: Klucel (hydroxypropylcellulose) (HPC)): 90 % of control

O=[N+]([O-])c1ccc(N=Cc2ccc3c(c2)OCO3)cc1
T/C (dose: 100.0 mg/kg/injection, schedule: Q01DX001 (ip), vehicle: Klucel (hydroxypropylcellulose) (HPC)): 100 % of control | T/C (dose: 200.0 mg/kg/injection, schedule: Q01DX001 (ip), vehicle: Klucel (hydroxypropylcellulose) (HPC)): 95 % of control | T/C (dose: 400.0 mg/kg/injection, schedule: Q01DX001 (ip), vehicle: Klucel (hydroxypropylcellulose) (HPC)): 95 % of control

CCCN(CCC)CCCOC(=O)c1ccc([N+](=O)[O-])cc1
T/C (dose: 50.0 mg/kg/injection, schedule: Q01DX001 (ip), vehicle: saline): 100 % of control | T/C [7]: 100 % of control | T/C [8]: 100 % of control

CC(=O)OC(C)(C(=O)/C=C/C(C)(C)O)C1C(O)CC2(C)C3CC=C4C(C=C(O)C(=O)C4(C)C)C3(C)C(=O)CC12C (stereo not drawn)
T/C (dose: 0.25 mg/kg/injection, schedule: Q01DX010 (ip), vehicle: carboxymethylcellulose (CMC)): 100 % of control | T/C (dose: 0.5 mg/kg/injection, schedule: Q01DX010 (ip), vehicle: carboxymethylcellulose (CMC)): 96 % of control | T/C (dose: 1.0 mg/kg/injection, schedule: Q01DX010 (ip), vehicle: carboxymethylcellulose (CMC)): 98 % of control | T/C (dose: 2.0 mg/kg/injection, schedule: Q01DX010 (ip), vehicle: carboxymethylcellulose (CMC)): 117 % of control | T/C (dose: 4.0 mg/kg/injection, schedule: Q01DX010 (ip), vehicle: carboxymethylcellulose (CMC)): 105 % of control

O=C1c2ccccc2C(=O)N1CCC[P+](c1ccccc1)(c1ccccc1)c1ccccc1
T/C (dose: 1.56 mg/kg/injection, schedule: Q01DX009 (ip), vehicle: Klucel (hydroxypropylcellulose) (HPC)): 102 % of control | T/C [2]: 151 % of control

NC(=S)S/C=C/C(=O)O
T/C [5]: 96 % of control | T/C (dose: 50.0 mg/kg/injection, schedule: Q04DX003 (ip), vehicle: saline with Tween-80): 100 % of control | T/C [9]: 94 % of control | T/C [10]: 107 % of control | T/C [11]: 100 % of control | T/C [12]: 103 % of control | T/C [13]: 115 % of control

Cn1cncc1CC(Cl)CO (stereo not drawn)
T/C [4]: 100 % of control | T/C [6]: 99 % of control | T/C [14]: 103 % of control

O=[N+]([O-])c1ccccc1CSc1ncnc2nc[nH]c12
T/C [10]: 100 % of control | T/C (dose: 132.0 mg/kg/injection, schedule: Q01DX009 (ip), vehicle: saline with Tween-80): 104 % of control | T/C [11]: 100 % of control | T/C [12]: 108 % of control | T/C (dose: 300.0 mg/kg/injection, schedule: Q01DX009 (ip), vehicle: saline with Tween-80): 86 % of control | T/C [13]: 116 % of control

O=c1cc(N=Nc2ccc(O)cc2)[nH]c(=O)[nH]1
T/C (dose: 25.0 mg/kg/injection, schedule: Q01DX009 (ip), vehicle: water): 100 % of control | T/C (dose: 50.0 mg/kg/injection, schedule: Q01DX009 (ip), vehicle: water): 106 % of control | T/C (dose: 50.0 mg/kg/injection, schedule: Q04DX003 (ip), vehicle: water): 104 % of control and 107 % of control | T/C (dose: 100.0 mg/kg/injection, schedule: Q01DX009 (ip), vehicle: water): 106 % of control | T/C (dose: 100.0 mg/kg/injection, schedule: Q04DX003 (ip), vehicle: water): 93 % of control and 98 % of control | T/C (dose: 200.0 mg/kg/injection, schedule: Q01DX009 (ip), vehicle: water): 114 % of control | T/C (dose: 200.0 mg/kg/injection, schedule: Q04DX003 (ip), vehicle: water): 98 % of control and 102 % of control and 117 % of control | T/C (dose: 400.0 mg/kg/injection, schedule: Q01DX009 (ip), vehicle: water): 100 % of control | T/C (dose: 400.0 mg/kg/injection, schedule: Q04DX003 (ip), vehicle: water): 109 % of control and 111 % of control and 117 % of control

CN(C)CC/C=C1\c2ccccc2Sc2ccc(Cl)cc21
T/C (dose: 3.75 mg/kg/injection, schedule: Q01DX001 (ip), vehicle: Klucel (hydroxypropylcellulose) (HPC)): 112 % of control | T/C (dose: 7.5 mg/kg/injection, schedule: Q01DX001 (ip), vehicle: Klucel (hydroxypropylcellulose) (HPC)): 110 % of control | T/C (dose: 15.0 mg/kg/injection, schedule: Q01DX001 (ip), vehicle: Klucel (hydroxypropylcellulose) (HPC)): 112 % of control | T/C (dose: 30.0 mg/kg/injection, schedule: Q01DX001 (ip), vehicle: Klucel (hydroxypropylcellulose) (HPC)): 103 % of control | T/C (dose: 60.0 mg/kg/injection, schedule: Q01DX001 (ip), vehicle: Klucel (hydroxypropylcellulose) (HPC)): 114 % of control | T/C (dose: 120.0 mg/kg/injection, schedule: Q01DX001 (ip), vehicle: Klucel (hydroxypropylcellulose) (HPC)): 118 % of control

COc1cc2oc3c(c(=O)c2c(O)c1/C=C/C(C)C)C(C=C(C)C)Oc1cc(O)ccc1-3 (stereo not drawn)
T/C [1]: 94 % of control | T/C [2]: 110 % of control | T/C [3]: 108 % of control | T/C (dose: 50.0 mg/kg/injection, schedule: Q01DX009 (ip), vehicle: Klucel (hydroxypropylcellulose) (HPC)): 100 % of control | T/C (dose: 100.0 mg/kg/injection, schedule: Q01DX009 (ip), vehicle: Klucel (hydroxypropylcellulose) (HPC)): 107 % of control

OC1(C2(O)CCCC2)CCCC1
T/C [9]: 109 % of control | T/C [11]: 95 % of control | T/C (dose: 400.0 mg/kg/injection, schedule: Q01DX009 (ip), vehicle: saline with Tween-80): 100 % of control

CCCCNC=O
T/C [4]: 91 % of control | T/C [6]: 100 % of control | T/C [7]: 100 % of control | T/C [14]: 100 % of control and 104 % of control | T/C (dose: 100.0 mg/kg/injection, schedule: Q04DX003 (ip), vehicle: saline): 95 % of control | T/C [8]: 100 % of control | T/C (dose: 200.0 mg/kg/injection, schedule: Q01DX009 (ip), vehicle: saline): 104 % of control | T/C (dose: 200.0 mg/kg/injection, schedule: Q04DX003 (ip), vehicle: saline): 95 % of control | T/C (dose: 400.0 mg/kg/injection, schedule: Q01DX001 (ip), vehicle: saline): 100 % of control | T/C (dose: 400.0 mg/kg/injection, schedule: Q01DX009 (ip), vehicle: saline): 104 % of control | T/C (dose: 400.0 mg/kg/injection, schedule: Q04DX003 (ip), vehicle: saline): 104 % of control

O=C(O)c1c(C(=O)O)c(C(=O)O)c(C(=O)O)c(C(=O)O)c1C(=O)O
T/C (dose: 20.0 mg/kg/injection, schedule: Q01DX009 (ip), vehicle: saline): 107 % of control | T/C (dose: 40.0 mg/kg/injection, schedule: Q01DX009 (ip), vehicle: saline): 117 % of control | T/C (dose: 80.0 mg/kg/injection, schedule: Q01DX009 (ip), vehicle: saline): 98 % of control
